Read-outs that look alike come from different tables or passages of the source.
Columns and labels:
[1] = system: ethanol concentration in breath, feces, urine, blood and stomach; details: for ethanol concentration, Feces / ethanol concentration, Stomach: * p < 0.05
Procedure: (§2) In Male Wistar rats, weighing 300 to 320 mg each, intragastric cannulas were inserted as described by Tsukamoto and French. Cannulas were tunnelled subcutaneously to the dorsal aspect of the neck and attached to infusion pumps by means of a spring-tether device and swivel allowing complete mobility of rats in metabolic cages.
(§3) A liquid diet described by Thompson and Reitz was used.
Concentration of ethanol in urine, which are representative of blood alcohol levels were measured daily. Rats were housed in metabolic cages that separated urine from feces, and urine was collected over 24 hours in bottles containing mineral oil to prevent evaporation.
ANOVA or Student's t-test was used for determination of statistical significance as appropriate. […] A p value less than 0.05 was selected before the study as the level of significance.

[2] = system: rat liver (previously anoxic pericentral regions); experiment: cells; details: for IC50: Rattus norvegicus
Procedure: Animals used: Male Sprague-Dawley rats weighing between 180-210 g and fed a Purina diet. Rats were fasted for 24 h prior to surgery.
Liver Perfusion: Rats were anesthetized with pentobarbital sodium (50 mg) before surgery and livers were removed surgically and perfused via a cannula inserted into the portal vein with Krebs-Henseleit bicarbonate buffer (pH 7.4, 37° C.) saturated with an oxygen-carbon dioxide (95:5) mixture in a non-recirculating system (Krebs-Henseleit, 1932). After surgery, livers were perfused at flow rates around 1 ml/g/min for 75 minutes (low-flow). Subsequently, livers were perfused at normal flow rates (4 ml/g/min) for 40 minutes (reflow).
Lactate dehydrogenase (LDH): LDH activity in the perfusate was determined using standard enzymatic techniques (Bergmeyer, 1988). […] After cooling, samples were centrifuged at 1000×g for 10 minutes and the absorbance of the supernatant was determined at 535 nm. Rates of release of LDH expressed per gram wet weight of liver per hour.
Trypan Blue Distribution Time and Histological Procedures: To assess microcirculation and cell death in the liver, trypan blue was infused into the liver at the end of all experiments at final concentrations of 0.2 mM (Belinsky et al., 1984). The time for the liver surface to turn evenly dark blue was recorded. Excess dye was removed by perfusion with Krebs-Henseleit buffer for an additional 10 minutes. Subsequently, livers were perfused with 1% paraformaldehyde for 10 minutes and fixed tissue was embedded in paraffin and processed for light microscopy. Sections were stained only with eosin, a cytoplasmic stain, so that trypan blue could be identified readily in the nuclei of damaged cells.
All nuclei of parenchymal cells in a zone radiating five cells from either periportal or pericentral regions were identified as trypan blue-positive or negative. The percentage of staining was calculated from the number of stained nuclei divided by the total number of cells in any given region.
Statistical Analysis: Student's-t-test or ANOVA was used where appropriate. Differences were considered significant when the p-value was less than 0.05.

[3] = system: lipopolysaccharide (LPS) endotoxic shock in rats; details: for mortality: 5% glycine diet
Procedure: (§1) The rats were then injected lipopolysaccharide (LPS; 10, 20 and 30 mg/kg resp.) from the tail vein and mortality was assessed 24 hours after the injection.

[4] = system: AST (Aspartate Aminotransferase); details: glycine diet; LPS 10 mg/kg; survivors; untreated fed 2000 IU/L
Procedure: as §1
b) From the survivors, the liver enzyme AST (Aspartate Aminotransferase; a transaminase) was measured as indication for liver damage.

liver and lung = details: glycine diet; 24 hr after LPS 10 mg/kg
Procedure: d) Liver and lung specimens for histology were taken 24 hr after injection of LPS (10 mg/kg) and hematoxylin-eosin stained.

[5] = system: partial hepatic ischemia/reperfusion and LPS injection in rats; details: glycine diet 3 days; 90 min partial hepatic ischemia/reperfusion; LPS 5 mg/kg; 24 hours; p<0.05; control 0 of 4
Procedure: A sublethal dose of LPS (5 mg/kg) was injected via tail vein 6 hr after reperfusion.

[6] = system: liver (steatosis, inflammation and necrosis)
From the text: Rats underwent liver biopsy and autopsy after 2 and 4 weeks of treatment with ethanol. Livers were formalin-fixed, embedded in paraffin and stained with hematoxylin and eosin to assess steatosis, inflammation and necrosis. Liver pathology was scored as described by Nanji et al. as follows: steatosis (the percent liver cells containing fat): <25%=1+; <50%=2+; <75%=3+, >75%=4+; inflammation and necrosis: 1 focus per low-power field=1+; 2 or more=2+.

[7] = body weight and ethanol intake during ethanol treatment; assay type: in vivo, Male Wistar rats; details: liquid glycine diets; 4 weeks of ethanol
Procedure: as §2, §3

[8] = system: tumour necrosis factor (TNF)
[9] = system: Asparate Aminotransferase (AST); details: for serum AST: 4 weeks, liquid control diet 183 IU/L
Procedure: as §2, §3
Blood was collected via the tail vein once a week and centrifuged. Serum was stored at -20° C. in a microtube until assayed for AST by standard enzymatic procedures.

infection = details: in vivo
in vivo = details: rat, iv, 10 mg/kg
variety of cells = details: anoxia, potassium cyanide and t-butyl hydroxide; cited from earlier work
suspended hepatocytes = details: injury by calcium ionophores or oxidative stress; cited from earlier work
liver graft = details: added to liver graft storage solution; dogs; cited from earlier work
[10] = Table 1, Mean ± S.E.M., ethanol with or without 5% glycine
[11] = Table 1, Mean ± S.E.M., ethanol with or without 5% glycine, ** p < 0.01
[12] = Table 1, Mean ± S.E.M., ethanol with or without 5% glycine, *** p < 0.001
[13] = liquid 2% and 5% glycine diet, 4 weeks

For `CCO` [ethanol, reference compound], the “ethanol concentration, Feces” value [1, 10] was 82 ± 21, the “ethanol concentration, Stomach” value [1, 10] was 761 ± 625 and the “ethanol concentration, Blood Tail Vein” value [1, 11] was 199 ± 45. The “ethanol concentration, Blood Portal” value [1, 12] was 357 ± 65, the “ethanol concentration, Breath” value [1, 12] was 108 ± 12 and the “ethanol concentration, Urine A.M.” value ([1]; rat, in vivo, po) was 184 ± 12. For the same molecule, the “urine alcohol level, upper end of cyclic fluctuation” value ([1]; rat, in vivo, po) was “greater than 300 mg/dl”.

With `NCC(=O)O` [glycine] the “LDH release and cell death during reperfusion (in words)” value [2] was “minimized LDH release and cell death almost completely”, the “MDA production during reperfusion” value [2] was “tends to decrease with glycine, changes are not statistically significant” and the “oxygen uptake (indicator of mitochondrial function)” value [2] was “not altered”. The “trypan blue distribution time” value ([2]; 2 mM glycine, 40 minutes of reperfusion, control about 460 seconds) was “about 250 seconds”, the “trypan blue distribution time (in words)” value ([2]; 5 and 40 minutes after reflow) was “reduced significantly at 5 and 40 minutes after reflow” and the “change of trypan blue distribution time at later vs earlier time point” value ([2]; 40 vs 5 minutes after reflow) was “about 2 fold”. The “trypan blue distribution time” value ([2]; 5 minutes after reperfusion, control 225 seconds, p<0.05, n=5) was “about 190 seconds”, the IC50 ([2]; 40 min, read-out: half maximal decrease of trypan blue distribution time, 40 minutes of reflow) was 180 µM and the IC50 ([2]; read-out: half-maximal decrease of LDH release, rat liver, glycine infused from 10 min before reflow) was 180 µM. For the same molecule, the IC50 ([2]; read-out: half-maximal effect (trypan blue distribution time; cytoprotective effect), reflow liver perfusion) was 180 µM, the “enzyme (LDH) release, dose dependence (in words)” value ([2]; glycine 0.06-2 mM) was “minimizes enzyme release in a dose-dependent manner” and the “protection in the rat liver reperfusion model” value ([2]; physiological concentrations of 240-300 mmol (in humans)) was “more than half maximal protection”. The “protection against LPS mortality” value ([3]; 5% glycine diet 3 days, LPS 10 mg/kg, control 50% mortality, p<0.05) was 100%, the mortality ([3]; LPS 20 mg/kg, control 70%) was 30% and the mortality ([3]; LPS 30 mg/kg, control 100%) was 90%. The AST level [4] was “markedly and significantly reduced”, the “liver necrosis (histology)” value (liver and lung) was “less necrosis in the liver” and the “pulmonary edema (histology)” value (liver and lung) was “less pulmonary edema”. For the same molecule, the survival [5] was 5 rats out of 6, the “fatty changes (steatosis)” value [6, 13] was “attenuated” and the necrosis and inflammation [6, 13] was “almost totally absent”. For the same molecule, the “inflammation (statistics)” value ([6]; liquid glycine diets) was “only a tendency for reduction”, the “reductions of steatosis and necrosis (statistics)” value ([6]; liquid glycine diets) was “statistically significantly” and the “liver injury due to chronic intragastric ethanol exposure” value ([6]; rat) was “prevents liver injury”. For the same molecule, the body weight [7] was “no significant differences in body weight”, the “time of serum TNF peak after injection” value ([8]; 5% glycine diet, LPS 10 mg/kg, control 60 min) was 150 min and the “suppression of serum TNF increase” value ([8]; 5% glycine diet, LPS 10 mg/kg, p<0.05, control over 6000 pg/ml) was “at least 50%”. The “release of TNF into the systemic circulation” value ([8]; following endotoxic shock) was “significantly reduces the release of TNF”, the “ethanol concentration, Feces” value [1, 10] was 15 ± 11 and the “ethanol concentration, Stomach” value [1, 10] was 26. For the same molecule, the “ethanol concentration, Blood Tail Vein” value [1, 11] was 21 ± 13, the “ethanol concentration, Urine A.M.” value [1, 11] was 26 ± 25 and the “ethanol concentration, Blood Portal” value [1, 12] was 10 ± 7. The “ethanol concentration, Breath” value [1, 12] was 5 ± 4, the “ethanol concentration, Urine 24 hr” value [1, 12] was 24 ± 8 and the “alcohol in stomach contents (in words)” value ([1]; glycine-treated rats) was “reduced dramatically”. For the same molecule, the “reduction of the mean urine alcohol concentration” value ([1]; liquid 2% glycine diet) was 50%, the “reduction of the mean urine alcohol concentration” value ([1]; liquid 5% glycine diet) was 70% and the “daily urine alcohol concentration (in words)” value ([1]; liquid glycine diets) was “very low but were still cyclic”. For the same molecule, the “transfer of alcohol from the stomach into the blood” value ([1]; rat, in vivo) was “prevents the transfer of alcohol from the stomach into the blood”, the “increase of serum AST (in words)” value ([9]; both glycine treatments, every point during the study) was “attenuated significantly” and the “serum AST” value ([9]; liquid 2% glycine diet) was 66 IU/L. The “serum AST” value ([9]; liquid 5% glycine diet) was 100 IU/L, the “ischemic/endotoxic liver and organ damage, activation of Kupffer cells” value (Kupffer cells) was “prevents or at least substantially suppresses” and the “protective effect compared with fish oil” value (infection) was “more profound and acute than that obtainable by fish oil treatment”. For the same molecule, the concentration at 6 h (in vivo) was 1730 ± 515 µM, the cell damage (variety of cells) was “reduce cell damage” and the “protection of suspended hepatocytes” value (suspended hepatocytes) was “not found to protect”. The survival (liver graft) was “did not improve survival”.

— patent publication US5656608A (priority 1995, dated 1997)
